Assay results taken from ChEMBL document CHEMBL1201862, “PubChem BioAssay data set” (2004).
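Briefly, cells in 96-well plates were exposed to five compound concentrations for 48 h, and endpoints were estimated by linear interpolation. GI50: concentration for 50% inhibition of growth.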 Calls of active or inactive are those of the source. No stated cut-off is given here; in the data, active = GI50 up to about 1.1 µM and inactive = higher.

Experiments:
Test in all cases: inhibition of tumour cell growth, NCI panel, 48 h
[1] = system: KM12
[2] = system: CAKI-1
[3] = system: OVCAR-8
[4] = system: LOX IMVI
[5] = system: BT-549
[6] = system: ACHN
[7] = system: PC-3
[8] = system: TK-10
[9] = system: SF-268
[10] = system: T47D
[11] = system: SF-295
[12] = system: RPMI-8226
[13] = system: SK-OV-3
[14] = system: K562
[15] = system: MOLT-4
[16] = system: SF-539
[17] = system: OVCAR-3
[18] = system: M14
[19] = system: COLO 205
[20] = system: MCF7

SMILES	GI50 [1]	GI50 [2]	GI50 [3]	GI50 [4]	GI50 [5]	GI50 [6]	GI50 [7]	GI50 [8]	GI50 [9]	GI50 [10]	GI50 [11]	GI50 [12]	GI50 [13]	GI50 [14]	GI50 [15]	GI50 [16]	GI50 [17]	GI50 [18]	GI50 [19]	GI50 [20]
O=C1/C(=C/c2c(Cl)[nH]c3ccccc23)c2ccccc2N1c1ccccc1	3.86 µM (inactive)	8.3 µM (inactive)	4.35 µM (inactive)	3.66 µM (inactive)	3.29 µM (inactive)	7.01 µM (inactive)	4.28 µM (inactive)	11.2 µM (inactive)	5.52 µM (inactive)	3.37 µM (inactive)	2.44 µM (inactive)	2.92 µM (inactive)	2 µM (inactive)	4.1 µM (inactive)	4.22 µM (inactive)	3.7 µM (inactive)	1.79 µM (inactive)	3.93 µM (inactive)	1.79 µM (inactive)	4.02 µM (inactive)
COc1cc2c(cc1OC)C(=O)/C(=C/c1ccccc1)CC2	14.4 µM (inactive)	17.1 µM (inactive)	45.5 µM (inactive)	32.7 µM (inactive)	12.5 µM (inactive)	53.5 µM (inactive)	42.5 µM (inactive)	33.4 µM (inactive)	46.7 µM (inactive)	26.1 µM (inactive)	20.7 µM (inactive)	23.4 µM (inactive)	25.5 µM (inactive)	34.4 µM (inactive)	18.1 µM (inactive)	47.5 µM (inactive)	37.6 µM (inactive)	> 100 µM (inactive)	22.1 µM (inactive)	27.3 µM (inactive)
COC(=O)C(Cc1c[nH]c2ccccc12)NC1=Nc2ccncc2S(=O)(=O)N1c1cccc(OC(C)C)c1 (stereo not given)	63.2 µM (inactive)	32.4 µM (inactive)	30.3 µM (inactive)	26.4 µM (inactive)	27.8 µM (inactive)	41.1 µM (inactive)	39.9 µM (inactive)	> 100 µM (inactive)	41.9 µM (inactive)	36.1 µM (inactive)	42 µM (inactive)	15.5 µM (inactive)	> 100 µM (inactive)	41.8 µM (inactive)	8.91 µM (inactive)	80.5 µM (inactive)	36 µM (inactive)	41.6 µM (inactive)	30.3 µM (inactive)	24.7 µM (inactive)
Cc1cc(NCCCCCCCCCC[n+]2c(C)cc(N)c3ccccc32)c2ccccc2n1	0.2 µM (active)	9.68 µM (inactive)	0.875 µM (active)	0.546 µM (active)	1.86 µM (inactive)	2.31 µM (inactive)	0.188 µM (active)	1.82 µM (inactive)	1.43 µM (inactive)	0.333 µM (active)	0.861 µM (active)	0.029 µM (active)	1.11 µM (active)	0.0409 µM (active)	0.322 µM (active)	1.82 µM (inactive)	0.975 µM (active)	2.04 µM (inactive)	0.346 µM (active)	0.313 µM (active)
CCOC(=O)Nc1nc(-c2ccccc2)c(C)s1	> 100 µM (inactive)	> 100 µM (inactive)	> 100 µM (inactive)	> 100 µM (inactive)	53.8 µM (inactive)	> 100 µM (inactive)	> 100 µM (inactive)	> 100 µM (inactive)	> 100 µM (inactive)	47.3 µM (inactive)	> 100 µM (inactive)	> 100 µM (inactive)	> 100 µM (inactive)	18.3 µM (inactive)	7.35 µM (inactive)	> 100 µM (inactive)	98.9 µM (inactive)	> 100 µM (inactive)	96.6 µM (inactive)	56.4 µM (inactive)
CCc1ccccc1NC(=O)C(C#N)C1=C(Cl)C(=O)c2ccccc2C1=O (stereo not given)	13.5 µM (inactive)	20.3 µM (inactive)	17.9 µM (inactive)	13.2 µM (inactive)	21.9 µM (inactive)	15.2 µM (inactive)	14.6 µM (inactive)	18.7 µM (inactive)	21.7 µM (inactive)	19.5 µM (inactive)	20.9 µM (inactive)	12.4 µM (inactive)	36.6 µM (inactive)	8.04 µM (inactive)	8.73 µM (inactive)	18.9 µM (inactive)	5.69 µM (inactive)	6.71 µM (inactive)	15.7 µM (inactive)	22.8 µM (inactive)
Nc1ccc(/N=N\c2ccc(-c3ccc(O)cc3)cc2)c2ccc(S(=O)(=O)O)cc12	> 100 µM (inactive)	> 100 µM (inactive)	> 100 µM (inactive)	> 100 µM (inactive)	> 100 µM (inactive)	> 100 µM (inactive)	> 100 µM (inactive)	> 100 µM (inactive)	> 100 µM (inactive)	> 100 µM (inactive)	> 100 µM (inactive)	> 100 µM (inactive)	> 100 µM (inactive)	> 100 µM (inactive)	> 100 µM (inactive)	> 100 µM (inactive)	> 100 µM (inactive)	> 100 µM (inactive)	> 100 µM (inactive)	> 100 µM (inactive)
